Calls of active or inactive are those of the source. The rule behind the calls is not given here. Non-standard residues stand in square brackets, D forms with d. Residues, ends and D or L forms follow the SMILES beside them. *: point of attachment. CH2Cl = ClC*
What was measured:
Plasma kallikrein [1] = target: T1, Plasma kallikrein (Homo sapiens, UniProt P03952); assay: Inhibition of human kallikrein
[2] = target: Coagulation factor VII/tissue factor (Homo sapiens, UniProt P08709); assay: Inhibition of human tissue factor/factor 7a; type: protein-complex assay
Chain of Coagulation factor VII/tissue factor (P08709 61-212 limits assumed): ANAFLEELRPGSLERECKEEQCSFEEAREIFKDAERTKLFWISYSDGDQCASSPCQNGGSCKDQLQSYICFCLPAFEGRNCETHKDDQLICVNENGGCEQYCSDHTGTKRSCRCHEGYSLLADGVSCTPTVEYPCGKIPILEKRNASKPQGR
Chain of Coagulation factor VII/tissue factor (P08709 213-466 limits assumed): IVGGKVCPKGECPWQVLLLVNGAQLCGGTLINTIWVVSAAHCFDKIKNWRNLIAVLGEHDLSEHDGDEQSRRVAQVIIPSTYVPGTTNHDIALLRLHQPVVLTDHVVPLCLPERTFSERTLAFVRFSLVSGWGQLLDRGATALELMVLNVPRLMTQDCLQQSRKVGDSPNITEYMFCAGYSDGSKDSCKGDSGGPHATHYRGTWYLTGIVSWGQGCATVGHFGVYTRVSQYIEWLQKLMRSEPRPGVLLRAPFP
Chain of Coagulation factor VII/tissue factor (P13726 33-295 partner limits assumed): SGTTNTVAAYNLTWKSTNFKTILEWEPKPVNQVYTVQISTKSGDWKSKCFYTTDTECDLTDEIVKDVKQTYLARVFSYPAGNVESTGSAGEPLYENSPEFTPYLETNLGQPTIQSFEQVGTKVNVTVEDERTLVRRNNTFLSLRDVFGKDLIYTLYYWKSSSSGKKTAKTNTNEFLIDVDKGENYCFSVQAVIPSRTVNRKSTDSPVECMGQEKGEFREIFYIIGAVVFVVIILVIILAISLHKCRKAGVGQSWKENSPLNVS

Coagulation factor X [3] = target: T2, Coagulation factor X (Homo sapiens, UniProt P00742); assay: Inhibition of human factor 10a
T2 sequence (P00742 41-179 limits assumed): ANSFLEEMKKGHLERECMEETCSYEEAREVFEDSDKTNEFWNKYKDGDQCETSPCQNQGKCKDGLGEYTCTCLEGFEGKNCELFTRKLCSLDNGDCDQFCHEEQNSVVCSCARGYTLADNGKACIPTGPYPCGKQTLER
T2 sequence (P00742 235-488 limits assumed): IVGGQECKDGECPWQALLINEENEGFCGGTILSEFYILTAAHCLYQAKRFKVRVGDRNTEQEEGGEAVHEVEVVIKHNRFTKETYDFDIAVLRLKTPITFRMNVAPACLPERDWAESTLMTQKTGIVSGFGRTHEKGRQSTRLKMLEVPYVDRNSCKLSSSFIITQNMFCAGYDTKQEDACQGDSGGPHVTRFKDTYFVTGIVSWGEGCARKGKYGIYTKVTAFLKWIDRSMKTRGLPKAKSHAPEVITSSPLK

Coagulation factor XII = target: T3, Coagulation factor XII (Homo sapiens, UniProt P00748); assay: Inhibition of human factor 12a
T3 sequence (P00748 whole entry): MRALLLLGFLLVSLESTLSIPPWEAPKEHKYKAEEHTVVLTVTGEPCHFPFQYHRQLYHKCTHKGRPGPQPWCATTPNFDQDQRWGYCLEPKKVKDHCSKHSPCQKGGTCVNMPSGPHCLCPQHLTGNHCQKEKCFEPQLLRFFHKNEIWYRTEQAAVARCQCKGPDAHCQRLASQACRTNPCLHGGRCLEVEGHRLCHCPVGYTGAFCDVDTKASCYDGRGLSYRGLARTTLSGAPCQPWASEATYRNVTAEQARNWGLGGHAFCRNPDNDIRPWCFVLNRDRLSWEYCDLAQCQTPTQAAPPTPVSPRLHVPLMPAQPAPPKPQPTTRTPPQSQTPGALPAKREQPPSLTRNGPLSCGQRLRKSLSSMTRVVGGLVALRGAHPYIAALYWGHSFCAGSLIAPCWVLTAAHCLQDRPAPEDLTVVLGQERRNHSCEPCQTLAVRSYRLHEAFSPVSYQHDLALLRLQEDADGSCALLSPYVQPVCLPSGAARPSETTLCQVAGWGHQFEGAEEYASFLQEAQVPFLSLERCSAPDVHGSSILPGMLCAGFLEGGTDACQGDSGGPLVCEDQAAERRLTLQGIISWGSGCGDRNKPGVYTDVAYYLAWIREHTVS

Prothrombin [4] = target: T4, Prothrombin (Homo sapiens, UniProt P00734); assay: Inhibition of human thrombin
[5] = target: Coagulation factor VII/tissue factor (Homo sapiens) (UniProt P08709+P13726); assay: Inhibition of human tissue factor/factor 7a at 50 uM
Plasma kallikrein [6] = target: T1, Plasma kallikrein; assay: Inhibition of human kallikrein at 50 uM
Coagulation factor X [7] = target: T2, Coagulation factor X; assay: Inhibition of human factor 10a at 50 uM
Prothrombin [8] = target: T4, Prothrombin; assay: Inhibition of human thrombin at 50 uM
[9] = target: T5, Coagulation factor XII (Homo sapiens) (UniProt P00748); assay: Inhibition of human factor 12a at 50 uM
T5 sequence (whole entry): T3 sequence (P00748 whole entry)

[10] = target: T5, Coagulation factor XII (Homo sapiens); assay: Inhibition of human factor 12a assessed as residual activity at 49.5 uM; details: TDE = time-dependent effect

T1 sequence (P03952 20-390 limits assumed): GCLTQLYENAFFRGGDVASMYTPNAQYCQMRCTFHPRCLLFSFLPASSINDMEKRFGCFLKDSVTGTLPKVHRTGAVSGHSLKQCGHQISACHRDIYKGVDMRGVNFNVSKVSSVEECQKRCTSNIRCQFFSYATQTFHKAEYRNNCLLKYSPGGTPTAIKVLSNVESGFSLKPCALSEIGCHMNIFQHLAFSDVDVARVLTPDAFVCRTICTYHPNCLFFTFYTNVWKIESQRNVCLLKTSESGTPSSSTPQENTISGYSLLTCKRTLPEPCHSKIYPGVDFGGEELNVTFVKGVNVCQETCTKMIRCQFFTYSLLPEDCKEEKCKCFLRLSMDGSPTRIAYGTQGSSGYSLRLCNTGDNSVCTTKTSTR
T1 sequence (P03952 391-638 limits assumed): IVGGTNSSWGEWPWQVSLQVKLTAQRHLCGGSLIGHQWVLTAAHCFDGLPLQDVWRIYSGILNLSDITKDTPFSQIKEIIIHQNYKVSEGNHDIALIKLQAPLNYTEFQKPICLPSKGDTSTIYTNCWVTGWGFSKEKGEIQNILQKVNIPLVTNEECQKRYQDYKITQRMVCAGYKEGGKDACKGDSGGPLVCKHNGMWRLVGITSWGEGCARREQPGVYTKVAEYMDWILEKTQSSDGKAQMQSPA

IC50 (Plasma kallikrein [1]) [µM]	IC50 [2] [µM]	IC50 (Coagulation factor X [3]) [µM]	IC50 (Coagulation factor XII) [µM]	IC50 (Prothrombin [4]) [µM]	Activity [5]	Activity (Plasma kallikrein [6])	Activity (Coagulation factor X [7])	Activity (Prothrombin [8])	Activity [9]	Activity (Prothrombin [4])	Activity [10]	SMILES
			34	> 50	inactive	inactive	inactive					Cc1ccc2oc(=O)c(C(=O)Nc3ccc(Cl)cc3)cc2c1
			> 50		inactive	inactive	inactive	inactive				Cc1ccc2oc(=O)c(C(=O)NCCc3ccccc3)cc2c1
			15	> 50	inactive	inactive	inactive					Cc1ccc2oc(=O)c(C(=O)NCc3cccc4ccccc34)cc2c1
					inactive	inactive	inactive	inactive	inactive			Cc1ccc2oc(=O)c(C(=O)Oc3ccccc3)cc2c1
			31		inactive	inactive	inactive	inactive				Cc1ccc2oc(=O)c(C(=O)Nc3cccc(Cl)c3)cc2c1
> 50			23	> 50	inactive		inactive					Cc1ccc2oc(=O)c(C(=O)Nc3ccccc3)cc2c1
> 50		> 50			inactive				inactive	inactive		COc1cccc2cc(C(=O)Nc3ccccc3)c(=O)oc12
			42		inactive	inactive	inactive	inactive				O=C(Nc1ccccc1)c1cc2ccccc2oc1=O
			4.4		inactive	inactive	inactive	inactive			tde	O=C(Nc1ccccc1)c1cc2cc(Cl)cc(Br)c2oc1=O
			30	> 50	inactive	inactive	inactive					Cc1ccc2oc(=O)c(C(=O)Nc3ccccc3Cl)cc2c1
> 50	> 50						inactive	inactive	inactive			Cc1ccc2oc(=O)c(C(=O)NC(C)C)cc2c1
		> 50	> 50	7	inactive	inactive						O=C(Oc1ccccc1)c1cc2cc(CCl)ccc2oc1=O
> 50			19		inactive		inactive	inactive				O=C(Nc1ccccc1)c1cc2cc(Cl)cc(Cl)c2oc1=O
> 50	> 50						inactive	inactive	inactive			CCN(CC)c1ccc2cc(C(=O)Nc3ccccc3)c(=O)oc2c1
			22		inactive	inactive	inactive	inactive				O=C(Nc1ccccc1)c1cc2cc([N+](=O)[O-])ccc2oc1=O
	> 50		10	> 50		inactive	inactive					Cc1cccc(NC(=O)c2cc3cc(Cl)cc(Br)c3oc2=O)c1
			> 50		inactive	inactive	inactive	inactive				Cc1ccc2oc(=O)c(C(=O)NCc3ccccc3)cc2c1
			33		inactive	inactive	inactive	inactive				Cc1ccc2oc(=O)c(C(=O)NC3CCCCCCCCCCC3)cc2c1

The remaining lines, values behind:

SMILES	IC50 (Plasma kallikrein [1]) [µM]	IC50 [2] [µM]	IC50 (Coagulation factor X [3]) [µM]	IC50 (Coagulation factor XII) [µM]	IC50 (Prothrombin [4]) [µM]	Activity [5]	Activity (Plasma kallikrein [6])	Activity (Coagulation factor X [7])	Activity (Prothrombin [8])	Activity [9]	Activity (Prothrombin [4])	Activity [10]
Cc1cc(C)cc(NC(=O)c2cc3cc(Cl)cc(Cl)c3oc2=O)c1	> 50	> 50	> 50	4.3	> 50							
COc1cc(Br)cc2cc(C(=O)Nc3ccccc3)c(=O)oc12		> 50		> 50	> 50		inactive	inactive				
Cc1ccc2oc(=O)c(C(=O)Nc3cnc4ccccc4c3)cc2c1				8.3		inactive	inactive	inactive	inactive			
O=C(Nc1ccccc1)c1cc2cc(Br)ccc2oc1=O				24		inactive	inactive	inactive	inactive			
O=C(Nc1ccccc1)c1cc2cc(CCl)ccc2oc1=O			> 50	17	> 50	inactive	inactive					
Cc1ccc2oc(=O)c(C(=O)NC34CC5CC(CC(C5)C3)C4)cc2c1				29		inactive	inactive	inactive	inactive			
Cc1cc(C)cc(NC(=O)c2cc3cc(Cl)cc(Br)c3oc2=O)c1	> 50	> 50	> 50	32	> 50							
O=C(Nc1ccccc1)c1cc2ccc(O)cc2oc1=O	> 50		> 50		> 50	inactive				inactive		
Cc1cccc(NC(=O)c2cc3cc(C)ccc3oc2=O)c1				10	> 50	inactive	inactive	inactive				
Cc1ccc(NC(=O)c2cc3cc(C)ccc3oc2=O)cc1		> 50		20	> 50		inactive	inactive				
COc1ccc2cc(C(=O)Nc3ccccc3)c(=O)oc2c1	> 50		> 50		> 50	inactive				inactive		
O=C(Nc1ccccc1)c1cc2c(ccc3ccccc32)oc1=O	> 50	> 50	> 50		> 50					inactive		
Cc1cccc(NC(=O)c2cc3cc(Cl)cc(Cl)c3oc2=O)c1				25		inactive	inactive	inactive	inactive			
Cc1ccc2oc(=O)c(C(=O)Nc3ccccc3C)cc2c1				32	> 50	inactive	inactive	inactive				
O=C(Oc1ccccc1)c1cc2ccccc2oc1=O						inactive	inactive	inactive	inactive	inactive		
NC(N)=NCCC[C@H](NC(=O)[C@H](Cc1ccccc1)NC(=O)[C@H]1CCCN1)C(=O)CCl (H-[dP]-Phe-Arg-CH2Cl)	0.031	1.5	1.9	0.18	2.5							
Cc1cc(C)cc(NC(=O)c2cc3cc(C)ccc3oc2=O)c1				9.8	> 50	inactive	inactive	inactive				
Cc1ccc2oc(=O)c(C(=O)NC3CCCCC3)cc2c1						inactive	inactive	inactive	inactive	inactive		
